Experimental data: PMC6149971, “In Vivo and In Vitro Activities and ADME-Tox Profile of a Quinolizidine-Modified 4-Aminoquinoline: A Potent Anti-P. falciparum and Anti-P. vivax Blood-Stage Antimalarial” (Molecules : A Journal of Synthetic Chemistry and Natural …, 2017)
Where “and” joins values, the source holds several entries; their conditions need not be identical. Identical values can stand only once.

How the values were obtained:
[1] = test system: P. berghei ANKA; assay: Standard four-day suppressive test, P. berghei; type: in vivo; conditions: CD1 mice, oral, once a day for four days, parasitaemia on day 4
Method: Groups of five CD1 mice were inoculated i.v. with 4 × 10^6 infected erythrocytes/mice. The compound, dissolved in standard suspending formula (SSV) (0.5% sodium carboxymethylcellulose, 0.5% benzyl alcohol, 0.4% Tween 80, 0.9% NaCl), was administered orally, once a day for a period of four days, starting two hours post-infection. […] Parasitaemia was determined by microscopic examination of Giemsa-stained blood films taken on day four, processed using MICROSOFT® EXCEL spreadsheets (Microsoft Corp., Redmond, WA, USA), and expressed as percentages of inhibition from the arithmetic mean parasitaemias of each group in relation to the untreated group. ED50 and ED90 values were calculated by GraphPad Prism 6 (GraphPad Software Inc, La Jolla, CA, USA).

[2] = Pharmacokinetics in CD-1 mice after oral administration; type: in vivo, mouse
Method: Samples from the pharmacokinetic studies were analyzed under the following conditions: UPLC interfaced with a Premiere XE triple Quadrupole, Waters. A gradient from 2 to 100% (Water, MeOH, 5 mM Ammonium Acetate) over 1.3 min was used in Acquity HSS T3 (dimensions 2.1 by 50 mm, 1.8 µm column, 40 °C temperature, flow rate 0.5 mL/min). Detection was performed in MRM (ESI positive, Q1/Q3 330.16/152.00, Cone Voltage 45 V; Extractor 5 V; Capillary 3.4 kV). The limit of detection was 1 ng/mL. Pharmacokinetic parameters were determined by Non-Compartmental Analysis, using the linear trapezoidal rule and uniform weight.
Pharmacokinetic data were collected in mice by testing the racemate and the enantiomers at the same single dose, and vehicle-utilized for in vivo studies (see composition in paragraph 4.4). Briefly, male CD-1 mice (Charles River Laboratories) weighing 18–22 g received single dose (10 mg/kg) oral administrations of the AM1 racemate and single enantiomers, each dissolved in SSV. For each experiment, twenty-four mice/dose and three mice/time-point were used. Blood samples were collected at eight selected time-points (15, 30 and 60 min; 2, 4, 6, 8 and 24 h) under ethyl ether anaesthesia. The heparinized tubes containing blood samples were immediately placed on ice and centrifuged, and the supernatant collected and frozen at −80 °C prior to analysis. Pharmacokinetic plasma samples (spiked with internal standard) were filtered (Sirocco filter plate, Waters) under vacuum, and 5 µL analysed by LC-MS/MS.

[3] = test system: P. falciparum D10 (CQ-S); set-up: method as in PMID 22901673; conditions: 72 h incubation, pLDH method, mean of 3 experiments; data already published; cited from earlier work
[4] = test system: P. falciparum W-2 (CQ-R); set-up: method as in PMID 22901673; conditions: 72 h incubation, pLDH method, mean of 3 experiments; data already published; cited from earlier work
[5] = target: T1, CYP1A2 (Homo sapiens, UniProt P05177); assay: in vitro
T1 sequence (P05177 1-516): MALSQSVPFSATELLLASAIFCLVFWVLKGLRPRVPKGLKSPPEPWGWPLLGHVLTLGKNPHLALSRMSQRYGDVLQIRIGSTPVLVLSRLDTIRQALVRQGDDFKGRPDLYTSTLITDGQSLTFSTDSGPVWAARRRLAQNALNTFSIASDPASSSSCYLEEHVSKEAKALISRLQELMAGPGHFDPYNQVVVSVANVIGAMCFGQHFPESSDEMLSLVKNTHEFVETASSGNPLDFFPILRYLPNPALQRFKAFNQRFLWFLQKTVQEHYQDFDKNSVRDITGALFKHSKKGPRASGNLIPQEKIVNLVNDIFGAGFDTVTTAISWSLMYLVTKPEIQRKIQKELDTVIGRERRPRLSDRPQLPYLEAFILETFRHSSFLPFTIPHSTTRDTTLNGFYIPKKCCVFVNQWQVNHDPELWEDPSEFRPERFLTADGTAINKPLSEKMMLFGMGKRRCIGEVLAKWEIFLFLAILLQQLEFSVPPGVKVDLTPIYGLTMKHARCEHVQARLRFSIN

[6] = target: CYP2C9 (Homo sapiens, UniProt P11712); assay: in vitro
[7] = target: CYP2C19 (Homo sapiens, UniProt P33261); assay: in vitro
[8] = target: CYP2D6 (Homo sapiens, UniProt P10635); assay: in vitro
[9] = target: CYP3A4 (Homo sapiens, UniProt P08684); assay: in vitro
[10] = test system: P. vivax field isolates; assay: In vitro assay against P. vivax field isolates; type: cell-based
From the text: Ten P. vivax isolates were collected from June to July 2010 from malaria patients attending the Shoklo Malaria Research Unit (SMRU) clinics, Mae Sot region of the Tak Province in north-western Thailand under the ethical guidelines in the approved protocol OXTREC 027-05 (Centre for Clinical Vaccinology and Tropical Medicine, University of Oxford, Oxford, UK). These samples were collected from patients with no prior antimalarial therapy and with microscopically confirmed P. vivax. After written consent, blood samples were collected by venepuncture in 5 mL volume lithium heparinized tubes, which were then transported to the laboratory at SMRU within 5 h of collection. The ten isolates were chosen for testing because the majority (>80%) of the parasites were at the mid trophozoite stage (around 20 h post invasion) and no schizonts were detected.

[11] = target: T2, hERG (Homo sapiens, UniProt Q12809); assay: hERG [3H]-astemizole radioligand binding assay; conditions: HEK293 cell membranes, preliminary experiments
T2 construct: expressed in transfected cells
Method: [^3H]-astemizole (PerkinElmer ITALIA Spa, Milan, Italy) radioligand binding assays were performed in HEK293 cells membranes stably transfected with the hERG (U04270); non-specific binding was evaluated in the presence of an excess of 10 µM cold astemizole. Experiments were performed at 22 °C for 60 min in triplicate and compounds tested in a range from 0.03 µM to 30 µM. Two separate experiments were performed and data analyzed with non-linear fitting using a four-parameter logistic.

[12] = Microsome stability and metabolism studies, mouse; type: in vitro ADME; set-up: key: +: Metabolic Products Detected In Vitro and In Vivo; ND: Not detectable; conditions: (−)-AM1 1 μM, at 30 min
Method: (§1) Samples from the metabolic stability and metabolism studies were analyzed under the following conditions: UPLC interfaced with a Premiere XE triple Quadrupole Waters for stability studies, and Bruker Daltonics Ion Trap HCT Ultra for metabolic studies. A gradient from 2% to 100% (Water, MeOH, 5 mM Ammonium Acetate) over 2 min (stability) or 12 min (metabolism) in a C18 BEH (dimensions 1 by 50 mm for stability and 2.1 by 100 mm for metabolism, 1.7 µm column, 45 °C temperature, flow rate 0.5 mL/min) was used. For stability studies, the detection was performed in MRM (ESI positive, Q1/Q3 330.16/152.00, Cone Voltage 45 V; Extractor 5 V; Capillary 3.4 kV), while for metabolism studies, analysis was performed in Auto MS/MS mode (ESI positive; Capillary 109 V; Dry Temp 350 °C; Nebulizer 30 psi; Dry gas 10 L/min; HV capillary 500 V; Mass Accu time 500 µs; Mass range MS scan 100–600 amu, MS/MS 50–450 amu).
(§2) For stability and metabolism studies, test compounds were dissolved in DMSO, diluted at the final concentration of 1 µM, and pre-incubated in duplicate for 10 min at 37 °C in potassium phosphate buffer, pH 7.4, 3 mM MgCl2, with rat, mouse, and human hepatic microsomes (Xenotech Europe, Pfungstadt, Germany) at the final concentration of 0.5 mg/mL. The reaction was then started by adding the cofactor mixture of NADP, Glc6P, and G6P-DH, in the presence of UDPGA 1 mM in human microsomes to promote glucuronide formation. Acetonitrile (with verapamil as internal standard) was added to the samples at the times time 0 and 30 min to stop the reaction. Samples were then centrifuged and the supernatants analysed and quantified by LC-MS/MS. Reference compounds of known metabolic stability, 7-ethoxycoumarin (7-EC) and propranolol, were used as controls.
(§3) The percentage of the area of test compounds remaining after 30 min incubation was calculated in respect to the area of compounds at time = 0 min. […] Samples were re-analyzed by acquiring the daughter scan of the potential metabolites found during the full scan acquisition.

[13] = Microsome stability and metabolism studies, rat; type: in vitro ADME; set-up: key: +: Metabolic Products Detected In Vitro and In Vivo; ND: Not detectable; conditions: (−)-AM1 1 μM, at 30 min
Method: as §1, §2, §3

[14] = Microsome stability and metabolism studies, human; type: in vitro ADME; set-up: key: +: Metabolic Products Detected In Vitro and In Vivo; ND: Not detectable; conditions: (−)-AM1 1 μM, at 30 min
Method: (§4) Samples from the metabolic stability and metabolism studies were analyzed under the following conditions: UPLC interfaced with a Premiere XE triple Quadrupole Waters for stability studies, and Bruker Daltonics Ion Trap HCT Ultra for metabolic studies. A gradient from 2% to 100% (Water, MeOH, 5 mM Ammonium Acetate) over 2 min (stability) or 12 min (metabolism) in a C18 BEH (dimensions 1 by 50 mm for stability and 2.1 by 100 mm for metabolism, 1.7 µm column, 45 °C temperature, flow rate 0.5 mL/min) was used. […]
For stability and metabolism studies, test compounds were dissolved in DMSO, diluted at the final concentration of 1 µM, and pre-incubated in duplicate for 10 min at 37 °C in potassium phosphate buffer, pH 7.4, 3 mM MgCl2, with rat, mouse, and human hepatic microsomes (Xenotech Europe, Pfungstadt, Germany) at the final concentration of 0.5 mg/mL. […] Samples were then centrifuged and the supernatants analysed and quantified by LC-MS/MS. […]
as §3

[15] = Metabolites in mouse plasma after oral treatment; type: in vivo; set-up: key: +: Metabolic Products Detected In Vitro and In Vivo; ND: Not detectable; conditions: after 50 mg/kg (−)-AM1 oral gavage, at 120 min
Method: A representative chromatogram in the mouse and the MS spectra are shown in Figure S1 (Supplementary Materials), while the proposed structures of metabolites in all the species, together with the retention times, are shown in Table 3. In the same table, the metabolites found in mouse plasma after 50 mg/kg oral treatment are included. The retention times and [M + H]^+ of the metabolites are the same for all three species.
The parent [M + H]^+ = 330 and the metabolites [M + H]^+ = 346 and [M + H]^+ = 344 were also detected in the mouse plasma samples collected after oral treatment of CD1 mice with 50 mg/kg of (−)-AM1 (Figure S4).
as §4

[16] = male, CD-1, mouse, in vivo, po, 10 mg/kg
[17] = CD-1 mice, 10 mg/kg oral, single dose in SSV, plasma

T2 sequence (Q12809 whole entry): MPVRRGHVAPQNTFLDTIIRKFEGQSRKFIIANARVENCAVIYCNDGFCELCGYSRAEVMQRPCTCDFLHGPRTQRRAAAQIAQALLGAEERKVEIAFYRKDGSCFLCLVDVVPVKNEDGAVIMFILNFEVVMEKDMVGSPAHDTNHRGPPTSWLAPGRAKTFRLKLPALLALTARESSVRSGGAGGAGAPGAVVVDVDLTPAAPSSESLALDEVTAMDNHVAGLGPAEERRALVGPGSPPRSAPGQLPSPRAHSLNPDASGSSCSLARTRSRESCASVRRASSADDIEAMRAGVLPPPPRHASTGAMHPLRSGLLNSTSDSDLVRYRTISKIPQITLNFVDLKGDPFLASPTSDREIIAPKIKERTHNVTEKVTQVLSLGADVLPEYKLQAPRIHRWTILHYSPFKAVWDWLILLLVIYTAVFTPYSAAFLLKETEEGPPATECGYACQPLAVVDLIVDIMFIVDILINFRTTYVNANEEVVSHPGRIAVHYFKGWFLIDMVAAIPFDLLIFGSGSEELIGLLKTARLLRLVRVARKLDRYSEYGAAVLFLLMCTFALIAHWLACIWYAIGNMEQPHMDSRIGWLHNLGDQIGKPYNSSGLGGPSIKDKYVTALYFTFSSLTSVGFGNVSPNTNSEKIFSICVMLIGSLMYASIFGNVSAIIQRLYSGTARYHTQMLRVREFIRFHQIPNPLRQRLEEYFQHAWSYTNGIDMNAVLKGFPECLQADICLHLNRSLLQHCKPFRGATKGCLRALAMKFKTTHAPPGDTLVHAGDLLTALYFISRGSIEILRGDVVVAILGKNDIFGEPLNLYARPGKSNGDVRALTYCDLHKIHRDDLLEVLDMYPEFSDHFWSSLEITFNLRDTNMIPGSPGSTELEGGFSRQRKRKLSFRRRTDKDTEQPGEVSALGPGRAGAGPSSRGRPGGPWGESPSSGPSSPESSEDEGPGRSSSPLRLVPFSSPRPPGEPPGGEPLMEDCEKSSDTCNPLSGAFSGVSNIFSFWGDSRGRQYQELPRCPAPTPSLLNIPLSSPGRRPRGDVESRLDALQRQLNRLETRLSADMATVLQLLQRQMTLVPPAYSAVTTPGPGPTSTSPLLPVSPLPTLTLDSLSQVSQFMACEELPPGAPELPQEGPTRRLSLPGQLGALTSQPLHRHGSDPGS
Sequence of CYP2D6 (P10635 whole entry): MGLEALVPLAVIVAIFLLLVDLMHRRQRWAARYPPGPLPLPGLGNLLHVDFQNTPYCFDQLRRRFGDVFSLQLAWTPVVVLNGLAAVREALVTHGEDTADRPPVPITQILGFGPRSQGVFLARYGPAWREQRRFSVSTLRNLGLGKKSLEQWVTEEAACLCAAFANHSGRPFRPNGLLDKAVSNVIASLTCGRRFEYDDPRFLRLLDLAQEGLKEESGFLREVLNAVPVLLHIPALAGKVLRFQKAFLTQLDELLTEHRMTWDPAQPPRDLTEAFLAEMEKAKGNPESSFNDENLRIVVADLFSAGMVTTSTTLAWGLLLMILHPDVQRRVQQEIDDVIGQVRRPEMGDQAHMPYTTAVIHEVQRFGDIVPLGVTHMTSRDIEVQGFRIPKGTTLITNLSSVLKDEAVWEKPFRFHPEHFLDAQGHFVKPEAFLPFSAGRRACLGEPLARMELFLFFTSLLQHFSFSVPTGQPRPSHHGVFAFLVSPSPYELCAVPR
Sequence of CYP2C19 (P33261 whole entry): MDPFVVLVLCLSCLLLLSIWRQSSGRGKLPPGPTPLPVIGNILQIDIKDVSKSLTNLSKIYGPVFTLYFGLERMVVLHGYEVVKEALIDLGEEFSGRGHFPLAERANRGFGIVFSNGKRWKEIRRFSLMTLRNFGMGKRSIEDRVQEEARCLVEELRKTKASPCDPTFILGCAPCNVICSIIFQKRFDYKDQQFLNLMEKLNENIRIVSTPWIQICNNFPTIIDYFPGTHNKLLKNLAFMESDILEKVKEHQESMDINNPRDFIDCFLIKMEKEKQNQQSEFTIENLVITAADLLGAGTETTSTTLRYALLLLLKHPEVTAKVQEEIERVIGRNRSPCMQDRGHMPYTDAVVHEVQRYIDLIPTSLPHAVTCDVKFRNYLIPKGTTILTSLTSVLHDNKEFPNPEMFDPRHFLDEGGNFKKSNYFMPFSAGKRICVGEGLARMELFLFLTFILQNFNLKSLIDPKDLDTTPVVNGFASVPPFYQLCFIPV
Sequence of CYP2C9 (P11712 whole entry): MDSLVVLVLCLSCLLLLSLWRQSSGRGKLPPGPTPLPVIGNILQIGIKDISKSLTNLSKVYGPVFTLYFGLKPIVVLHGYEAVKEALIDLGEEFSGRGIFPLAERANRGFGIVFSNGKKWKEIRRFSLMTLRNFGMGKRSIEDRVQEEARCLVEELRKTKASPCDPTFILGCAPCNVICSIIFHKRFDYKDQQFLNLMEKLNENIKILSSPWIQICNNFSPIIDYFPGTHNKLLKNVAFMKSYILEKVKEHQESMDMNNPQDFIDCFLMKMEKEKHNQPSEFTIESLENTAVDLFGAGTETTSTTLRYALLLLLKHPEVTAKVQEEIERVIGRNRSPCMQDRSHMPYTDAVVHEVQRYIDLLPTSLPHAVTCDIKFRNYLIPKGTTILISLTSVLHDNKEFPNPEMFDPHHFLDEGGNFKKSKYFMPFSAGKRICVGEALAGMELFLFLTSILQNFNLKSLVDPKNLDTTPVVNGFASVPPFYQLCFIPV
Sequence of CYP3A4 (P08684 whole entry): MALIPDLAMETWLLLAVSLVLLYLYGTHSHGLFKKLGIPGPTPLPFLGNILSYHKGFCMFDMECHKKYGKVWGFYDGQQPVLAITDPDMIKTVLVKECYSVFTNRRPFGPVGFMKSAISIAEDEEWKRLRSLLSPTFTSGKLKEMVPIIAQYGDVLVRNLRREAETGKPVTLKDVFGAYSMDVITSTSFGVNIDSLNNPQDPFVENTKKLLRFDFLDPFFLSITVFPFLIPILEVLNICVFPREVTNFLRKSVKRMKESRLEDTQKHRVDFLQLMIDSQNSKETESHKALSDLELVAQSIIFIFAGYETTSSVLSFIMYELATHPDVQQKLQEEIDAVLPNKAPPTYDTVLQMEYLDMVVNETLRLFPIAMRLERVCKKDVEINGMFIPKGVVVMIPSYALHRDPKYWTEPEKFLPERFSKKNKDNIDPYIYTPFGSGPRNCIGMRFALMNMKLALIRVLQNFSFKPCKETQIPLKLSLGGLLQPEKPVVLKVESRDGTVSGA

Clc1ccc2c(NC[C@H]3CCCN4CCCC[C@@H]34)ccnc2c1 [(+)-AM1, 7-chloro-N-(((1R,9aS)-octahydro-1H-quinolizin-1-yl)methyl)quinolin-4-amine]
P. berghei ED90 (95% CI) [1]: 2.03 (1.46–2.60) mg/kg
ED50 ([1]; Plasmodium berghei, 96 h, read-out: P. berghei ED50 (95% CI)): 1.6 mg/kg
AUC(0-t) [2, 16]: 0.382 µM·h and 126 ng·h/mL
Cmax [2, 16]: 108 nM and 35.5 ng/mL
MRT last [2, 16]: 2.7 h
Tmax [2, 16]: 2 h
IC50 [3]: 17.5 nM
IC50 [4]: 35.8 nM
inhibition at 3 µM [5]: 8.3 ± 0.8%
inhibition at 3 µM [6]: 11.1 ± 0.5%
inhibition at 3 µM [7]: 9 ± 1.1%
inhibition at 3 µM [8]: 62.2 ± 1%
inhibition at 3 µM [9]: 14.3 ± 1.9%

Clc1ccc2c(NCC3CCCN4CCCCC34)ccnc2c1 (racemic) [(±)-AM1, 7-chloro-4-(N-lupinyl)aminoquinoline]
IC50 ([10]; 10 field isolates from the Thai–Burmese border, mean, read-out: P. vivax IC50, field isolates): 29.7 nM
potency against P. vivax field isolates relative to CQ ([10]; 10 field isolates, times higher than CQ): about 3 times
P. berghei ED50 (95% CI) [1]: 2.77 (1.26–4.29) mg/kg
P. berghei ED90 (95% CI) [1]: 12.58 (7.69–17.46) mg/kg
Ki [11]: 500 to 800 nM
MRT last [2, 17]: 3.27 h
Tmax [2, 17]: 0.5 h
AUC last ([2]; CD-1 mice, 10 mg/kg oral, single dose in SSV, plasma, 10 mg/kg): 19.5 min·µM and 6421 min·ng/mL
IC50 [3]: 16.1 nM
IC50 [4]: 35.4 nM

[O-][NH+](CC1CCCN2CCCCC12)c1ccnc2cc(Cl)ccc12 (stereo not drawn) [C00003]
Metabolic products detected, in vitro microsomes, mouse [12]: +
Metabolic products detected, in vitro microsomes, rat [13]: +
Metabolic products detected, in vitro microsomes, human [14]: +
Metabolic products detected, in vivo plasma levels, mouse [15]: +
